Results from patent US12590063B2, “Phenol derivative” (Sumitomo Pharma Co., Ltd., priority 2020, dated 2026).
Read-outs that look alike come from different tables or passages of the source.

How the values were obtained:
Human TRPV1 = molecular target: T1, Human TRPV1 (Homo sapiens, UniProt Q8NER1); assay: Evaluation of agonistic properties using human TRPV1 transiently expressing cells; assay type: cell-based; details: for TRPV-1-agonistic activity (in words): evaluation test for TRPV-1-agonistic properties, summary of Tables 3 and 4
T1 construct: the TRPV1 gene (GenBank NP_542435.2) had been inserted; expressed in transfected cells; host or cells: HEK293 cells (cat #CCL-82.2, ATCC), transient transfection with pcDNA3.1
T1 sequence (Q8NER1 whole entry): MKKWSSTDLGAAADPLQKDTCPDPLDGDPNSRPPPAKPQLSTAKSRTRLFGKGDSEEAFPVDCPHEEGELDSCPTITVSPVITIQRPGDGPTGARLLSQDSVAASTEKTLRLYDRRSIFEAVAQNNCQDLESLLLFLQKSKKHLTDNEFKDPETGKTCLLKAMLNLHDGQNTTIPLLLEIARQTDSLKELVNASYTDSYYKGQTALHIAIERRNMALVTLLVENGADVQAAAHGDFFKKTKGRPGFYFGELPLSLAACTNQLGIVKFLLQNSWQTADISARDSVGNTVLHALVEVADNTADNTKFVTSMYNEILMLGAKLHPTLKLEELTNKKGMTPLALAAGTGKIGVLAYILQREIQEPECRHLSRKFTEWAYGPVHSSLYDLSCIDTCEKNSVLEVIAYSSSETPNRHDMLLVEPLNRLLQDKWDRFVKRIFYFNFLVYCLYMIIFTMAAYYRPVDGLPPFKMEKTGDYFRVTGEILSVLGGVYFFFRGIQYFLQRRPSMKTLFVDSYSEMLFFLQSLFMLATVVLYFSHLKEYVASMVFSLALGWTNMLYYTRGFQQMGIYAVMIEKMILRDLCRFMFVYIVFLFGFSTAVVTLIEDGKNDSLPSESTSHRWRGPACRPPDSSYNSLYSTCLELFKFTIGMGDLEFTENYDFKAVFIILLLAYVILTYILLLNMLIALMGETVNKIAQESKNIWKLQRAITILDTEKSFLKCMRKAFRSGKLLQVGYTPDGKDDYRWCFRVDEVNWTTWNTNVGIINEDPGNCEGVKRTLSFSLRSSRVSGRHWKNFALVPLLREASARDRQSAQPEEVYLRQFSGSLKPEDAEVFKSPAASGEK
Excerpt: Test Example 1: Evaluation of Agonistic Properties Using Human TRPV1 Transiently Expressing Cells
(1) Generation of Human TRPV1 Transiently Expressing Cells
Human TRPV1 transiently expressing cells were generated and subjected to culture. Specifically, HEK293 cells (cat #CCL-82.2, ATCC) were used as host cells. Human TRPV1 and apoaequorin were transiently expressed by introducing the mammalian cell expression pcDNA3.1 vector (cat #v790-20, Invitrogen) into which the TRPV1 gene (GenBank NP_542435.2) had been inserted.
The Dulbecco's Modified Eagle's Medium (DMEM) medium (cat #11550-043, Thermo Fisher Scientific) containing 10% inactivated fetal bovine serum (cat #10270-106, Thermo Fisher Scientific) was used as the medium, and the culture was carried out in tissue culture dishes (cat #3020-100, Iwaki). During the culture, cells were collected every 2 to 3 days by treating with PBS containing 10% 2.5 g/1-trypsin/[…] solution, phenol red (cat #32777-44, Nacalai Tesque), and passage culture was carried out.
Three days after the passage, cells were collected with 10% trypsin-PBS treatment at a state of about 80% confluency, suspended in a DMEM medium containing 10% fetal bovine serum to 4000 cells/35 μl/well, and seeded into 384-well plates (cat #353962, FALCON).
The day after seeding, Viviren (cat #E6492, Promega) was added (15 μl/well) to a final concentration of 4.5 μM/HBSS (cat #14065-056, Thermo Fisher Scientific)/90 mM HEPES (cat #17514-15, Nacalai Tesque)/0.1% BSA (cat #01281-84, Nacalai Tesque), and after centrifugation, the samples were allowed to stand at room temperature for 2 hours under light-shielded conditions.
(2) Preparation of Test Compounds
For the test compounds, dimethyl sulfoxide solutions were produced at a concentration 1000 times the final concentration, and from these solutions, solutions at concentration 10 times the final concentration were prepared with Hanks/20 mmol/L HEPES/0.10% BSA (cat #01281-84, Nacalai Tesque).
(3) Evaluation of TRPV1-Agonistic Properties
FDSS7000 (Hamamatsu Photonics K.K.) was used for detection of TRPV1 agonist-stimulated luminescence signals. The test compounds were added to plates to which the cells and luminescent substrates had been added. The luminescence signals (center wavelength: 465 nm) after addition of the test compounds were measured, and the Rlu (Max−Min) was calculated.

[1] = Evaluation test for metabolic stability to S9; assay type: in vitro ADME; details: liver S9 fraction, 37° C., 15 minutes, final compound concentration 10 nM
Experimental: Test Example 4: Evaluation Test for Metabolic Stability to S9
The compounds were added to a reaction solution in which the liver S9 fraction was diluted with phosphate buffer, and incubation was initiated at 37° C. (final compound concentration 10 nM, final volume 300 μL). After incubation for 15 minutes, the reaction was stopped by adding the reaction solution to acetonitrile, and centrifugation was carried out. After filtering the supernatant through a filter, the amount of compounds was determined using LC/MS/MS. From the amount of compounds obtained, the residual rate 15 minutes after the initiation of the reaction was calculated relative to the amount of compounds before the initiation of the reaction (0 minutes).

[2] = HEK293 cells transiently expressing human TRPV1 and apoaequorin, luminescence signal Rlu (Max-Min), read-out: TRPV1 EC50

| SMILES | EC50 (Human TRPV1; [2]) [nM] | Residual rate (%) [1] [%] | EC50 (Human TRPV1) [nM] | TRPV-1-agonistic activity (in words) (Human TRPV1) |
| --- | --- | --- | --- | --- |
| COc1cc(CC(=O)Nc2cccc(-c3ccc(OC(=O)c4ccccc4)cc3)c2)ccc1O [Example 3, 3′-[2-(4-hydroxy-3-methoxyphenyl)acetamido][1,1′-biphenyl]-4-yl benzoate] | 341 | <1 | – | – |
| COc1cc(CC(=O)Nc2cccc(-c3cccc(OC(=O)CC4CCCCC4)c3)c2)ccc1O [Example 30, 3′-[2-(4-hydroxy-3-methoxyphenyl)acetamido][1,1′-biphenyl]-3-yl cyclohexylacetate] | 7.2 | <1 | – | – |
| COc1cc(CC(=O)Nc2cccc(-c3cccc(OC(=O)Cc4ccccc4)c3)c2)ccc1O [Example 18, 3′-[2-(4-hydroxy-3-methoxyphenyl)acetamido][1,1′-biphenyl]-3-yl phenylacetate] | – | <1 | 5.4 | – |
| COc1cc(CC(=O)Nc2cccc([C@H]3CC[C@@H](OC(=O)Cc4cccs4)CC3)c2)ccc1O [Example 13, cis-4-{3-[2-(4-hydroxy-3-methoxyphenyl)acetamido]phenyl}cyclohexyl (thiophen-2-yl)acetate] | 9 | 89 | – | – |
| COc1cc(CNC(=O)c2cccc(-c3cccc(O)c3)c2)ccc1O [Reference Example 12, 3′-Hydroxy-N-[(4-hydroxy-3-methoxyphenyl)methyl][1,1′-biphenyl]-3-carboxamide] | 3290 | – | – | – |
| COc1cc(CC(=O)Nc2cccc([C@H]3CC[C@H](OC(=O)C(C)C)CC3)c2)ccc1O [Example 48, trans-4-{3-[2-(4-hydroxy-3-methoxyphenyl)acetamido]phenyl}cyclohexyl 2-methylpropanoate] | 32.1 | – | – | – |
| COc1cc(CC(=O)Nc2cccc([C@H]3CC[C@@H](OC(=O)Cc4ccccc4F)CC3)c2)ccc1O [Example 15, cis-4-{3-[2-(4-hydroxy-3-methoxyphenyl)acetamido]phenyl}cyclohexyl (2-fluorophenyl)acetate] | 4.6 | 69 | – | stronger TRPV-1-agonistic activity |
| COc1cc(CC(=O)Nc2cc(-c3cccc(OC(=O)C(C)C)c3)ccn2)ccc1O [Example 25, 3-{2-[2-(4-hydroxy-3-methoxyphenyl)acetamido]pyridin-4-yl}phenyl 2-methylpropanoate] | 38 | <1 | – | – |
| COc1cc(CC(=O)Nc2ccc(F)c(-c3cccc(O)c3)c2)ccc1O [compound 17] | 7020 | – | – | – |
| COc1cc(CC(=O)Nc2cccc([C@H]3CC[C@@H](OC(=O)C(C)C)CC3)c2)ccc1O [Example 17, cis-4-{3-[2-(4-hydroxy-3-methoxyphenyl)acetamido]phenyl}cyclohexyl 2-methylpropanoate] | 2.6 | <1 | – | stronger TRPV-1-agonistic activity |
| COc1cc(CC(=O)Nc2cccc(-c3cccc(OC(=O)Cc4ccccc4F)c3)c2)ccc1O [Example 28, 3′-[2-(4-hydroxy-3-methoxyphenyl)acetamido][1,1′-biphenyl]-3-yl (2-fluorophenyl)acetate] | 8.8 | <1 | – | – |
| COc1cc(CC(=O)Nc2cccc(-c3ccc(OC(=O)C(C)C)cc3)c2)ccc1O [Example 4, 3′-[2-(4-hydroxy-3-methoxyphenyl)acetamido][1,1′-biphenyl]-4-yl 2-methylpropanoate] | 33.6 | <1 | – | – |
| COc1cc(CC(=O)Nc2ccnc([C@H]3CC[C@@H](OC(C)=O)CC3)c2)ccc1OC(C)=O [Example 43, 4-[2-({2-[(cis)-4-(acetyloxy)cyclohexyl]pyridin-4-yl}amino)-2-oxoethyl]-2-methoxyphenyl acetate] | 3080 | – | – | – |
| COc1cc(CC(=O)Nc2cccc([C@H]3CC[C@@H](OC(=O)CC4CCOCC4)CC3)c2)ccc1O [Example 11, cis-4-{3-[2-(4-hydroxy-3-methoxyphenyl)acetamido]phenyl}cyclohexyl (oxa-4-yl)acetate] | 21.3 | 91 | – | – |
| COc1cc(CC(=O)Nc2cccc(-c3cccc(OC(=O)C4CCCCC4)c3)n2)ccc1O [Example 34, 3-{6-[2-(4-hydroxy-3-methoxyphenyl)acetamido]pyridin-2-yl}phenyl cyclohexanecarboxylate] | 12.8 | <1 | – | – |
| COc1cc(CC(=O)Nc2cccc(-c3cccc(OC(=O)Cc4ccc(C)cc4)c3)c2)ccc1O [Example 27, 3′-[2-(4-hydroxy-3-methoxyphenyl)acetamido][1,1′-biphenyl]-3-yl (4-methylphenyl)acetate] | 11.1 | <1 | – | – |

| SMILES | EC50 (Human TRPV1; [2]) [nM] | Residual rate (%) [1] [%] | EC50 (Human TRPV1) [nM] | TRPV-1-agonistic activity (in words) (Human TRPV1) |
| --- | --- | --- | --- | --- |
| COc1cc(CC(=O)Nc2cccc([C@H]3CC[C@H](OC(=O)C4CCCCC4)CC3)c2)ccc1O [Example 37, trans-4-{3-[2-(4-hydroxy-3-methoxyphenyl)acetamido]phenyl}cyclohexyl cyclohexanecarboxylate] | 73.1 | – | – | – |
| COc1cc(CC(=O)Nc2cccc([C@H]3CC[C@H](OC(=O)Cc4ccccc4)CC3)c2)ccc1O [Example 36, trans-4-{3-[2-(4-hydroxy-3-methoxyphenyl)acetamido]phenyl}cyclohexyl phenylacetate] | – | – | 57.5 | – |
| COc1cc(CC(=O)Nc2cccc(-c3cccc(O)c3)c2)ccc1O [compound 14] | 1650 | – | – | – |
| COc1cc(CC(=O)Nc2cccc([C@H]3CC[C@@H](OC(=O)Cc4ccccc4)CC3)c2)ccc1O [Example 35, cis-4-{3-[2-(4-hydroxy-3-methoxyphenyl)acetamido]phenyl}cyclohexyl phenylacetate] | – | – | 8.2 | – |
| COc1cc(CC(=O)Nc2cccc([C@H]3CC[C@@H](OC(C)=O)CC3)c2)ccc1OC(C)=O [Example 39, 4-(2-{3-[(cis)-4-(acetyloxy)cyclohexyl]anilino}-2-oxoethyl)-2-methoxyphenyl acetate] | 282 | – | – | – |
| COc1cc(CNC(=O)c2cccc(-c3cccc(O)c3)n2)ccc1O [compound 19] | 2720 | – | – | – |
| COc1cc(CC(=O)Nc2cccc([C@H]3CC[C@@H](O)CC3)c2)ccc1O [Reference Example 9, N-{3-[(cis)-4-Hydroxycyclohexyl]phenyl}-2-(4-hydroxy-3-methoxyphenyl)acetamide] | 2690 | – | – | – |
| COc1cc(CNC(=O)c2cccc([C@H]3CC[C@@H](OC(C)=O)CC3)c2)ccc1O [Example 42, cis-4-(3-{[(4-hydroxy-3-methoxyphenyl)methyl]carbamoyl}phenyl)cyclohexyl acetate] | 83.1 | – | – | – |
| COc1cc(CC(=O)Nc2cccc([C@H]3CC[C@H](O)CC3)c2)ccc1O [Reference Example 10, N-{3-[(trans)-4-Hydroxycyclohexyl]phenyl}-2-(4-hydroxy-3-methoxyphenyl)acetamide] | 8060 | – | – | – |
| COc1cc(CC(=O)Nc2cccc(-c3cccc(O)c3)n2)ccc1O [compound 16] | 1010 | – | – | – |
| COc1cc(CC(=O)Nc2cccc([C@H]3CC[C@H](OC(C)=O)CC3)c2)ccc1O [Example 38, trans-4-{3-[2-(4-hydroxy-3-methoxyphenyl)acetamido]phenyl}cyclohexyl acetate] | 18.9 | – | – | – |
| COc1cc(CC(=O)Nc2ccnc(-c3cccc(O)c3)c2)ccc1O [compound 15] | 4560 | – | – | – |
| COc1cc(CC(=O)Nc2cccc(-c3ccc(O)cc3)c2)ccc1O [compound 13] | 606 | – | – | – |
| COc1cc(CNC(=O)c2ccnc(-c3cccc(O)c3)c2)ccc1O [Reference Example 18] | 6110 | – | – | – |
| COc1cc(CC(=O)Nc2ccnc([C@H]3CC[C@@H](OC(C)=O)CC3)c2)ccc1O [Example 41, cis-4-{4-[2-(4-hydroxy-3-methoxyphenyl)acetamido]pyridin-2-yl}cyclohexyl acetate] | 95.1 | – | – | – |
| COc1cc(CC(=O)Nc2cccc([C@H]3CC[C@H](OC(C)=O)CC3)c2)ccc1OC(C)=O [Example 40, 4-(2-{3-[(trans)-4-(acetyloxy)cyclohexyl]anilino}-2-oxoethyl)-2-methoxyphenyl acetate] | 480 | – | – | – |
